Common to all, as to type: cell-based
For one series, the system named is Aspergillus oryzae. Description: Antimicrobial spectrum, paper disc agar diffusion. The settings on record: 8 mm paper disc, 100 µg/ml solution, 25°C for a day and night, read-out: Diameter of inhibition zone (mm). How it is done: (§1) The antimicrobial spectra of the compounds of the present invention were examined.
(§2) Table 1 gives the antimicrobial spectra of NK372135A, C and D. A paper disc of 8 mm in diameter was immersed in a solution containing 100 µg/ml of NK372135A, C or D and then placed on an agar medium in which a test strain had been grown. Regarding the four strains listed in the upper part of Table 1 and Candida albicans, each culture was conducted at 37°C for a day and night, while other strains were cultured at 25°C for a day and night. Then the diameter of each inhibition zone thus formed was measured. […] Since no existing antifungal agent exerts a satisfactory effect on fungi, the compounds of the present invention are highly expected as effective antifungal agents.
In general terms: A growth-free zone around the sample is the usual read-out of agar diffusion tests.

The next series concerns Bacillus subtilis. Nature of the series: Antimicrobial spectrum, paper disc agar diffusion. Particulars: 8 mm paper disc, 100 µg/ml solution, 37°C for a day and night, read-out: Diameter of inhibition zone (mm). The method, then: as §1, §2
The subject of a further series is Botrytis fabae. Description: Antimicrobial spectrum, paper disc agar diffusion. Particulars: 8 mm paper disc, 100 µg/ml solution, 25°C for a day and night, read-out: Diameter of inhibition zone (mm). How it is done:
as §1, §2

Series [1] deals with Candida albicans. Nature of the series: Antimicrobial spectrum, paper disc agar diffusion. Particulars: 8 mm paper disc, 100 µg/ml solution, 37°C for a day and night, read-out: Diameter of inhibition zone (mm). How it is done: as §1, §2
A further series concerns Escherichia coli. Nature of the series: Antimicrobial spectrum, paper disc agar diffusion. Particulars: 8 mm paper disc, 100 µg/ml solution, 37°C for a day and night, read-out: Diameter of inhibition zone (mm). How it is done:
as §1, §2

Another series relates to Fusarium roseum. Nature of the series: Antimicrobial spectrum, paper disc agar diffusion. Particulars: Fusarium sambucinum, read-out: Diameter of inhibition zone (mm). How it is done:
as §1, §2

A further series has as its system Mucor japonicus. Description: Antimicrobial spectrum, paper disc agar diffusion. Particulars: 8 mm paper disc, 100 µg/ml solution, 25°C for a day and night, read-out: Diameter of inhibition zone (mm). How it is done: as §1, §2
Another series concerns Mycobacterium smegmatis. Nature of the series: Antimicrobial spectrum, paper disc agar diffusion. Particulars: Mycolicibacterium smegmatis, 8 mm paper disc, 100 µg/ml solution, 37°C for a day and night, read-out: Diameter of inhibition zone (mm). The method, then: as §1, §2
The subject of a further series is Mycosphaerella melonis. Description: Antimicrobial spectrum, paper disc agar diffusion. The settings on record: 8 mm paper disc, 100 µg/ml solution, 25°C for a day and night, read-out: Diameter of inhibition zone (mm). The method, then: as §1, §2
For another series, the system named is Saccharomyces cerevisiae. Nature of the series: Antimicrobial spectrum, paper disc agar diffusion. Particulars: 8 mm paper disc, 100 µg/ml solution, 25°C for a day and night, read-out: Diameter of inhibition zone (mm). How it is done: as §1, §2
For another series, the system named is Staphylococcus aureus. Description: Antimicrobial spectrum, paper disc agar diffusion. The settings on record: 8 mm paper disc, 100 µg/ml solution, 37°C for a day and night, read-out: Diameter of inhibition zone (mm). The method, then: as §1, §2
Series [2] deals with Trichophyton mentagrophytes. Nature of the series: Antimicrobial spectrum, paper disc agar diffusion. Particulars: 8 mm paper disc, 100 µg/ml solution, 25°C for a day and night, read-out: Diameter of inhibition zone (mm). How it is done: as §1, §2
The next series addresses T1, 5-lipoxygenase (Cavia porcellus, UniProt A0A286X958).
T1 construct: the peritoneal cells of the animals were collected; endogenous in cells; host or cells: casein-elicited peritoneal cells of Hartley guinea pigs
T1 sequence (A0A286X958 1-674): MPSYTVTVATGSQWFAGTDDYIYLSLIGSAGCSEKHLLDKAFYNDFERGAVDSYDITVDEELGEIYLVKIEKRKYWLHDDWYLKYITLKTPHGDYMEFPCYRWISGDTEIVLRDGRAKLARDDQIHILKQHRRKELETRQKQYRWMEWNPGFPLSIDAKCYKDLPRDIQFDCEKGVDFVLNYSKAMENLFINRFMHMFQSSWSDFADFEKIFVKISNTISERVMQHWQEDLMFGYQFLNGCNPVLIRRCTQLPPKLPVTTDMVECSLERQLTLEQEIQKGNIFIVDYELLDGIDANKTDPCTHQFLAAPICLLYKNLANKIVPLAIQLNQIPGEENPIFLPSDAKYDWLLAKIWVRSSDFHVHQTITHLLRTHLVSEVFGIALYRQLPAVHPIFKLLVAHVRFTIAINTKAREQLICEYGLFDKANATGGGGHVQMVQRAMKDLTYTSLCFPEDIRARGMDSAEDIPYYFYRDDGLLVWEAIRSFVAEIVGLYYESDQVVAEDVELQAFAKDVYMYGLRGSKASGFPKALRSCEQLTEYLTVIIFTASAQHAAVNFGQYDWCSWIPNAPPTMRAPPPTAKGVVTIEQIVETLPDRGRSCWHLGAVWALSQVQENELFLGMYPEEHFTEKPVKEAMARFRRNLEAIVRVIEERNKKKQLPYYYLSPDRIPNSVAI
Nature of the series: 5-lipoxygenase inhibitory activity in ionophore-stimulated peritoneal cells (5-HETE by HPLC). Particulars: Guinea pig peritoneal cells, ionophore A 23187 + arachidonic acid. How it is done: The 5-lipoxygenase inhibitory activities of the compounds of the present invention were examined.
The 5-lipoxygenase inhibitory activity was evaluated from the inhibitory activity on ionophore stimulation on Guinea pig peritoneal cells in the following manner.
A 2% casein solution was intraperitoneally administered to Hartley Guinea pigs weighing 250 to 350 g. 18 hours after the administration, the peritoneal cells of the animals were collected. The contaminating erythrocytes were hemolyzed and centrifuged. To the cell fraction thus obtained was added a 50 mM phosphate buffer solution (pH 7.0) containing […] of indomethacin and the concentration of the peritoneal cells was adjusted to 1 x 10⁷ cell/-ml. To 1.0 ml of the cell suspension thus obtained, a test compound of various concentrations was added so as to give a final concentration of 100 µM. Then the mixture was incubated at 37°C for five minutes. Next, 1.0 µg of lonophore A 23187 and 10 µg of arachidonic acid were added thereto and the reaction was initiated. After 20 minutes, the reaction was ceased by adding 4 ml of ethanol. The reaction supernatant was analyzed by HPLC in accordance with the method of Amano et al. [Vitamin, 59, 211 - 219 (1985)] so as to detect 5-hydroxyeicosatetraenoic acid (5-HETE) which was a metabolite derived from arachidonic acid.

The test system of a further series is G361. Nature of the series: Cytotoxicity, growth inhibition by methylene blue method. Particulars: Homo sapiens, G-361, 96 h, RPMI 1640, 10% fetal calf serum, two to four days with compound, read-out: Cytotoxicity IC₅₀. The method, then:
(§3) The cytotoxicities of NK372135A, B and C and methoxy-xanthocillin monomethyl ether (XTM) which is an analog thereof were examined. 2,000 cells of each of G361, SW1116, PC-3 and Li-7 cell strains were inoculated into a 96-well plate and incubated at 37°C under 5% CO₂ for 24 hours. An RPMI 1640 medium containing 10% of fetal calf serum was employed as a medium. After incubating for 24 hours, a test compound of a given concentration was added thereto and the incubation was further conducted for two to four days. Subsequently, the cells were counted by the methylene blue method so as to evaluate the extent of the growth inhibition.

The next series relates to Li-7. The series is described as above. Particulars: RPMI 1640, 10% fetal calf serum, two to four days with compound; for IC50: 96 h, read-out: Cytotoxicity IC₅₀. The method, then: as §3
The subject of the next series is PC-3. The series is described as above. The settings on record: Homo sapiens, 96 h, RPMI 1640, 10% fetal calf serum, two to four days with compound, read-out: Cytotoxicity IC₅₀. How it is done: as §3
A further series concerns SW1116. The description is as above. The settings on record: Homo sapiens, SW 1116, 96 h, RPMI 1640, 10% fetal calf serum, two to four days with compound, read-out: Cytotoxicity IC₅₀. How it is done:
as §3

Series [3] relates to Candida albicans. Nature of the series: Anti-Candida activity, growth in bouillon medium (absorbance at 595 nm). Particulars: Candida albicans 2 x 10³ cell/well, 30°C for 16 hours. The method, then:
The anti-Candida activity of NK372135B was compared with that of methoxy-xanthocillin X dimethyl ether which is shown in The Journal of Antibiotics Vol 34 (1981) No. 12, P1556 ∼ 1561.
Candida albicans was inoculated into a 96-well plate at a density of 2 x 10³ cell/well with the use of 0.2 cc of a bouillon medium. Then a test compound of various concentrations was added thereto and the microorganism was incubated at 30°C for 16 hours. Then the absorbance of each well at 595 nm was measured and IC₅₀ was calculated from the dose response curve. […] Thus it was found out that the saturation of the double bond in methoxy-xanthocillin X dimethyl ether enhanced the anti-Candida activity.

In brackets after ≈: the same amount, converted by molar mass.

Broadly, the zone of inhibition is the size of the clear area around the sample on an inoculated plate.

With `[C-]#[N+]C(=Cc1ccc(OC)cc1)C(Cc1ccc(OC)cc1)[N+]#[C-]` (centres unmarked) [NK372135A], the zone of inhibition at 100 µg/mL in the series on Aspergillus oryzae amounted to 20 mm; with Bacillus subtilis, 21.5 mm; with Botrytis fabae, 25 mm; with Candida albicans [1], 30 mm; in the series on Escherichia coli it was 20 mm; in the series with Fusarium roseum, 9 mm. Besides, the zone of inhibition at 100 µg/mL with Mucor japonicus came out at 15 mm; with Mycobacterium smegmatis, 21 mm; with Mycosphaerella melonis, 18 mm; in the series with Saccharomyces cerevisiae it was 25 mm; in the series on Staphylococcus aureus, 20.5 mm; in [2], 30 mm. The “Inhibition ratio (%)” value on 5-lipoxygenase (10⁻⁴ mol/ℓ) was 37.1%; at 5-lipoxygenase (10⁻⁵ mol/ℓ), 5.0%; on 5-lipoxygenase (10⁻⁶ mol/ℓ), 0%. Besides, the IC50 in the series on G361 was found to be 2.13 µg/mL (≈ 6.69 µM); in the series on Li-7, 1.45 µg/mL (≈ 4.55 µM); in the series on PC-3, 1.05 µg/mL (≈ 3.3 µM); with SW1116, 1.65 µg/mL (≈ 5.18 µM).

As for `[C-]#[N+]C(=Cc1ccc(OC)c(OC)c1)C(Cc1ccc(OC)cc1)[N+]#[C-]` (centres unmarked) [NK372135B], the “Inhibition ratio (%)” value on 5-lipoxygenase (10⁻⁴ mol/ℓ) is on record as 33.3%; on 5-lipoxygenase (10⁻⁵ mol/ℓ) it was 5.0%; on 5-lipoxygenase (10⁻⁶ mol/ℓ), 0%. Besides, the IC50 in the series on Candida albicans [3] (read-out: IC₅₀) came to 1.5 µg/mL (≈ 4.31 µM); with G361, 2.4 µg/mL (≈ 6.89 µM); with Li-7 it was 1.8 µg/mL (≈ 5.17 µM); with PC-3, 0.76 µg/mL (≈ 2.18 µM); with SW1116 it was 2.55 µg/mL (≈ 7.32 µM).

`[C-]#[N+]C(=Cc1ccc(OC)c(O)c1)C(Cc1ccc(OC)cc1)[N+]#[C-]` (centres unmarked) [NK372135C]: the zone of inhibition at 100 µg/mL is 21 mm in the series with Aspergillus oryzae; 28 mm with Bacillus subtilis; 25 mm with Botrytis fabae; 25 mm with Candida albicans [1]; 29 mm in the series on Escherichia coli; 12 mm with Fusarium roseum. The zone of inhibition at 100 µg/mL in the series on Mucor japonicus is 17 mm; in the series on Mycosphaerella melonis, 19 mm; in the series with Saccharomyces cerevisiae, 25 mm; in the series on Staphylococcus aureus, 26 mm; in series [2], 30 mm. In addition, the “Inhibition ratio (%)” value came out at 100% on 5-lipoxygenase (10⁻⁴ mol/ℓ), 25.5% on 5-lipoxygenase (10⁻⁵ mol/ℓ) and 12.9% at 5-lipoxygenase (10⁻⁶ mol/ℓ). Also, the IC50 with G361 was found to be 2.52 µg/mL (≈ 7.54 µM); in the series on Li-7, 1.7 µg/mL (≈ 5.08 µM); in the series with PC-3 it was 1.23 µg/mL (≈ 3.68 µM); in the series with SW1116 it was 5.89 µg/mL (≈ 17.6 µM).

`[C-]#[N+]C(=C\c1ccc(OC)cc1)/C(=C/c1ccc(OC)c(OC)c1)[N+]#[C-]` [methoxy-xanthocillin X dimethyl ether, reference compound] registered an IC₅₀ with Candida albicans [3] of 9.0 µg/mL.

Take “methoxy-xanthocillin monomethyl ether [XTM, reference compound]”: the “Cytotoxicity IC₅₀” value in the series with Li-7 is 0.57 µg/mL.

For the origin of these results see patent EP0394868A1, “New antibiotics NK372135, process for the production thereof and use thereof” (Nippon Kayaku Kabushiki Kaisha, priority 1989, dated 1990).
